Data as given in BindingDB's records for patent US20250313563 (The Broad Institute, 2025).
Where “and” joins values, the source holds several entries; their conditions need not be identical. Equal values may be shown once.

Biological target: Glycogen synthase kinase-3 beta (Homo sapiens, UniProt P49841)
Experiment: TR-FRET Assay
Procedure: The assay was performed in a white, 384 well, low volume, flat bottom plate (Grenier). […] The kinase activity was quenched with 2 μL of 250 mM EDTA. A 10 μL volume of 40 nM Strepavidin-d2, 2 nM Tb2+-pSer641 antibody in TR-FRET Detection Buffer (Invitrogen) was then added.

Sequence of Glycogen synthase kinase-3 beta (P49841 whole entry): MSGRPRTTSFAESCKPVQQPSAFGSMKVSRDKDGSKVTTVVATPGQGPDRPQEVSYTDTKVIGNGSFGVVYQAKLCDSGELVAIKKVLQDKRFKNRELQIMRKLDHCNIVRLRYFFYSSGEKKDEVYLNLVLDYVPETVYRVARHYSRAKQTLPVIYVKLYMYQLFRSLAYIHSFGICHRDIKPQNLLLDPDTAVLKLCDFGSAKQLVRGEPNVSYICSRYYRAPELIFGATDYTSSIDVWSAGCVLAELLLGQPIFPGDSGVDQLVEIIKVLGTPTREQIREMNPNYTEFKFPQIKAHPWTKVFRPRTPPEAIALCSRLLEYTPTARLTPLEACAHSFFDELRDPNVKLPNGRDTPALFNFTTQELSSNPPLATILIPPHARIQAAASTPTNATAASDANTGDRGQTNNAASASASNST

SMILES	IC50
CC(C)(C)CC1N=NC2=C1C1(CN(c3ccccc3)C1)C1=C(CC(C)(C)CC1=O)N2 (stereo unspecified) [US20250313563, Compound 93429]	1 to 5 µM and 0.134 µM
CC(C)(C)CC1N=NC2=C1[C@@](C)(c1ccccc1)C1=C(CC(C)(C)NC1=O)N2 (stereo partly specified) [US20250313563, Compound 114532]	> 5 µM
CN1C[C@@]2(C3=C(CC(C)(C)CC3=O)NC3N=NC(CC(C)(C)C)=C32)c2ccccc21 (stereo partly specified) [US20250313563, Compound 125979]	1 to 5 µM
CC(C)(C)CC1N=NC2=C1[C@@](C)(c1cccc(N3C=COCC3)c1)C1=C(CC(C)(C)CC1=O)N2 (stereo partly specified) [US20250313563, Compound 126399]	> 5 µM
CC1(C)CC(=O)C2=C(C1)NC1N=NC(C3CC(F)(F)C3)=C1[C@]21COc2ccccc21 (stereo partly specified) [US20250313563, Compound 127429]	1 to 5 µM
CC(C)(C)CC1=C2C(N=N1)NC1=C(C(=O)CC(C)(C)C1)[C@]21CCc2c(F)cccc21 (stereo partly specified) [US20250313563, Compound 791256]	1 to 5 µM
CC[C@]1(c2cccc(Cl)c2)C2=C(CC(C)(C)CC2=O)NC2N=NC(Br)=C21 (stereo partly specified) [US20250313563, Compound 801314]	< 0.1 µM and 0.1 to 1 µM
CC(C)(C)CC1N=NC2=C1[C@@]1(CCc3cccc(F)c31)C1=C(CC(C)(C)CC1=O)N2 (stereo partly specified) [US20250313563, Compound 801351]	0.1 to 1 µM
CC[C@]1(c2cccc(COC)c2)C2=CN=NC2NC2=C1C(=O)CC(C)(C)C2 (stereo partly specified) [US20250313563, Compound 810360]	0.1 to 1 µM
CC[C@]1(c2cccc(C(F)(F)F)c2)C2=C(CC(C)(C)CC2=O)NC2N=NC(Br)=C21 (stereo partly specified) [US20250313563, Compound 810466]	0.1 to 1 µM
CC[C@@]1(c2cccc(OC)c2)C2=CN=NC2NC2=C1C(=O)C[C@H](C)C2 (stereo partly specified) [US20250313563, Compound 811559]	0.1 to 1 µM
CC1(C)CC(=O)C2=C(C1)NC1N=NC(C3(C(F)(F)F)CC3)=C1[C@@]21CCc2c(F)cccc21 (stereo partly specified) [US20250313563, Compound 816839]	1 to 5 µM
CC[C@]1(c2cccc(-c3cnn(C)c3)c2)C2=CN=NC2NC2=C1C(=O)C[C@H](C)C2 (stereo partly specified) [US20250313563, Compound 823720]	0.1 to 1 µM
CC[C@]1(c2cccc(S(C)(=O)=O)c2)C2=CN=NC2NC2=C1C(=O)CC(C)(C)C2 (stereo partly specified) [US20250313563, Compound 826718]	< 0.1 µM and 0.1 to 1 µM
CC[C@]1(c2cccc(Br)c2)C2=CN=NC2NC2=C1C(=O)[C@H](F)C(C)(C)C2 (stereo partly specified) [US20250313563, Compound 835314]	0.1 to 1 µM
CC[C@@]1(c2cccc(C)c2)C2=C(CC(C)(C)CC2=O)NC2N=NC(C(F)(F)F)=C21 (stereo partly specified) [US20250313563, Compound 883873]	0.1 to 1 µM
CC[C@@]1(c2cccc(N3CCCC3)c2)C2=C(CC(C)(C)CC2=O)NC2N=NC(C)=C21 (stereo partly specified) [US20250313563, Compound 883874]	0.1 to 1 µM
CCC1(c2cccc(-c3ccncc3)c2)C2=CN=NC2NC2=C1C(=O)CC(C)(C)C2 (stereo unspecified) [US20250313563, Compound 883984]	< 0.1 µM
CCC1(c2cccc(N3CCC[C@H]3C)c2)C2=CN=NC2NC2=C1C(=O)CC(C)(C)C2 (stereo partly specified) [US20250313563, Compound 885204]	0.1 to 1 µM

SMILES	IC50
CC[C@@]1(c2cccc(OC)c2)C2=C(CC(C)(C)CC2=O)NC2N=NC(C(=O)OC)=C21 (stereo partly specified) [US20250313563, Compound 901480]	0.1 to 1 µM
CCC1(c2cccc(C(F)(F)F)c2)C2=C(N=NC2)NC2=C1C(=O)N(C)C2C (stereo unspecified) [US20250313563, Compound 911957]	0.1 to 1 µM
CC[C@]1(c2cccc(-c3ccnn3C)c2)C2=CN=NC2NC2=C1C(=O)CC(C)(C)C2 (stereo partly specified) [US20250313563, Compound 911992]	0.1 to 1 µM
CC[C@]1(c2cccc(S(=O)(=O)C3CC3)c2)C2=CN=NC2NC2=C1C(=O)CC(C)(C)C2 (stereo partly specified) [US20250313563, Compound 912171]	< 0.1 µM and 0.1 to 1 µM
CC[C@@]1(c2cccc(C(F)(F)F)c2)C2=CN=NC2NC2=C1C(=O)N(CC(F)(F)F)CC2 (stereo partly specified) [US20250313563, Compound 912206]	0.1 to 1 µM
CC[C@@]1(c2cccc(-c3ccnn3C)c2)C2=C(CC(C)(C)CC2=O)NC2N=NC(C)=C21 (stereo partly specified) [US20250313563, Compound 913023]	< 0.1 µM and 0.1 to 1 µM
CC[C@@]1(c2cccc(C3=CN=NC3)c2)C2=C(CC(C)(C)CC2=O)NC2N=NC(C)=C21 (stereo partly specified) [US20250313563, Compound 913025]	0.1 to 1 µM
CC[C@]1(c2cccc(-c3cnn4c3CCCC4)c2)C2=C(CC(C)(C)CC2=O)NC2N=NC(C)=C21 (stereo partly specified) [US20250313563, Compound 913036]	0.1 to 1 µM
CC[C@]1(c2cccc(-c3cnn(C)c3C)c2)C2=C(CC(C)(C)CC2=O)NC2N=NC(C)=C21 (stereo partly specified) [US20250313563, Compound 913045]	< 0.1 µM and 0.1 to 1 µM
CC[C@]1(c2cccc(-c3ccncc3F)c2)C2=C(CC(C)(C)CC2=O)NC2N=NC(C)=C21 (stereo partly specified) [US20250313563, Compound 913052]	0.1 to 1 µM
CC[C@@]1(c2cccc(S(=O)(=O)C(C)C)c2)C2=CN=NC2NC2=C1C(=O)CC(C)(C)C2 (stereo partly specified) [US20250313563, Compound 913135]	0.1 to 1 µM
CC[C@]1(c2cccc(C(F)(F)F)c2)C2=C(N=NC2)NC2=C1C(=O)N(C)[C@@H]2C [US20250313563, Compound 913454]	0.1 to 1 µM
CC[C@]1(c2cccc(C(F)(F)F)c2)C2=C(N=NC2)NC2=C1C(=O)N(C)[C@H]2C [US20250313563, Compound 913473]	0.1 to 1 µM
CC[C@@]1(c2cccc(C(F)(F)F)c2)C2=C(N=NC2)NC2=C1C(=O)N(C)[C@@H]2C [US20250313563, Compound 913475]	> 5 µM
CC[C@@]1(c2cccc(C(F)(F)F)c2)C2=C(N=NC2)NC2=C1C(=O)N(C)[C@H]2C [US20250313563, Compound 913495]	> 5 µM
CC[C@]1(c2cccc(S(=O)(=O)CC3CC3)c2)C2=CN=NC2NC2=C1C(=O)CC(C)(C)C2 (stereo partly specified) [US20250313563, Compound 917150]	0.1 to 1 µM
CC[C@@]1(c2cccc(-c3cc(C)ncc3F)c2)C2=CN=NC2NC2=C1C(=O)CC(C)(C)C2 (stereo partly specified) [US20250313563, Compound 927346]	1 to 5 µM
CCCS(=O)(=O)c1cccc([C@@]2(CC)C3=CN=NC3NC3=C2C(=O)CC(C)(C)C3)c1 (stereo partly specified) [US20250313563, Compound 929447]	< 0.1 µM and 0.1 to 1 µM
CC[C@]1(c2cccc(C(F)(F)F)c2)C2=CN=NC2NC2=C1C(=O)N(c1ccccc1)CC2 (stereo partly specified) [US20250313563, Compound 929474]	0.1 to 1 µM

SMILES	IC50
CC[C@]1(c2cccc(N(C)c3ccnc(OC)c3)c2)C2=CN=NC2NC2=C1C(=O)CC(C)(C)C2 (stereo partly specified) [US20250313563, Compound 932642]	0.1 to 1 µM
COC(=O)C1(c2ccccc2)CC2(C1)C1=C(N=NC1)NC1=C2C(=O)CC(C)(C)C1 (stereo unspecified) [US20250313563, Compound 942344]	0.1 to 1 µM
CC1(C)CC(=O)C2=C(C1)NC1=C(CN=N1)[C@]21CCN(S(=O)(=O)c2ccccc2F)C1 [US20250313563, Compound 943487]	0.1 to 1 µM
CC[C@]1(c2cccc(-c3ccnc(C)c3C)c2)C2=CN=NC2NC2=C1C(=O)CC(C)(C)C2 (stereo partly specified) [US20250313563, Compound 943516]	1 to 5 µM
CC[C@]1(c2cccc(-c3ccncc3F)c2)C2=CN=NC2NC2=C1C(=O)CC(C)(C)C2 (stereo partly specified) [US20250313563, Compound 943518]	0.1 to 1 µM
COc1cccc(S(=O)(=O)N2CCC3(CC2)C2=C(N=NC2)NC2=C3C(=O)CC(C)(C)C2)c1 [US20250313563, Compound 943962]	0.1 to 1 µM
CC[C@]1(c2cccc(-c3cc(C)nn3C)c2)C2=CN=NC2NC2=C1C(=O)NC(C)(C)C2 (stereo partly specified) [US20250313563, Compound 943966]	0.1 to 1 µM
CC[C@]1(c2cccc(-c3ccncc3C)c2)C2=CN=NC2NC2=C1C(=O)CC(C)(C)C2 (stereo partly specified) [US20250313563, Compound 943990]	0.1 to 1 µM
CC[C@]1(c2cccc(-c3ccnc(O)c3)c2)C2=CN=NC2NC2=C1C(=O)CC(C)(C)C2 (stereo partly specified) [US20250313563, Compound 943992]	0.1 to 1 µM
CC[C@@]1(c2cccc(-c3ccnc4c3CCCC4)c2)C2=CN=NC2NC2=C1C(=O)CC(C)(C)C2 (stereo partly specified) [US20250313563, Compound 944033]	0.1 to 1 µM
CC1(C)CC(=O)C2=C(C1)NC1=C(CN=N1)[C@@]21COC2(CN(C(=O)C3CCC4(CC3)COC4)C2)C1 [US20250313563, Compound 944075]	0.1 to 1 µM
CC[C@]1(c2cccc(N(C)c3nccc(C)n3)c2)C2=CN=NC2NC2=C1C(=O)CC(C)(C)C2 (stereo partly specified) [US20250313563, Compound 945328]	0.1 to 1 µM
CC[C@]1(c2cccc(C(F)(F)F)c2)C2=C(N=NC2)NC2=C1C(=O)N[C@@H]2C [US20250313563, Compound 945378]	0.1 to 1 µM
CC[C@@]1(c2cccc(C(F)(F)F)c2)C2=CN=NC2NC2=C1C(=O)NC[C@@H]2C (stereo partly specified) [US20250313563, Compound 945382]	0.1 to 1 µM
CC1(C)CC(=O)C2=C(C1)NC1=C(CN=N1)[C@]21COC2(CN(C(=O)C3CCOCC3)C2)C1 [US20250313563, Compound 945407]	0.1 to 1 µM
CC[C@]1(c2cccc(-c3ccncc3OC)c2)C2=CN=NC2NC2=C1C(=O)CC(C)(C)C2 (stereo partly specified) [US20250313563, Compound 945481]	0.1 to 1 µM
Cn1ccc(S(=O)(=O)N2CC[C@@]3(C2)C2=C(N=NC2)NC2=C3C(=O)CC(C)(C)C2)n1 [US20250313563, Compound 945712]	0.1 to 1 µM
CC[C@@]1(c2cccc(-c3cncn3C(C)C)c2)C2=CN=NC2NC2=C1C(=O)CC(C)(C)C2 (stereo partly specified) [US20250313563, Compound 945725]	< 0.1 µM and 0.1 to 1 µM
